Results taken from patent US7687497B2, “C10-substituted camptothecin analogs” (priority 2007, dated 2010).
Like-named read-outs stand apart in the source and are kept apart here.

Key:
[1] = tested on: A2780/WT (wild-type) cells; experiment: Sulforhodamine B (SRB) cytotoxicity assay in A2780/WT cells; type: cell-based; details: Homo sapiens, A2780, read-out: A2780/WT (nM)
Protocol: (§1) Each of the testing conditions used in this study in both A2780/WT (wild-type) and A2780/DX5 cells were repeated in five to fifteen experiments that were performed on separate days. Each experiment consisted of one microtiter plate with at least eight individual assays of a given drug treatment condition on the plate. The sulforhodamine B (SRB) assay was used to assess cytotoxicity and absorbance at 570 nm (A570) in order to calculate the percentage of cell control (or percent cell survival) for the various treatment conditions in the plate wells.
Roswell Park Memorial Institute (RPMI 1640) medium, fetal bovine serum (FBS), and L-glutamine were purchased from Gibco BRL. […]
Cells were manipulated in a Class IIA/B3 Biological Safety Cabinet (Forma Scientific) and maintained at 37° C. in a humidified atmosphere containing 5% CO2 in a water-jacketed cell culture incubator (Forma Scientific). Cells were counted using a Coulter-Z1 counter (Beckman-Coulter). […] Percentage of control was correlated to A570 values and determined using a Model EL800 plate reader (Bio-Tek Instruments).
Population doubling times for the two cell lines used in this study encompassed a total of five cell doublings corresponding to approximately 5 days for A2780/WT and A2780/DX5 cells. […] Prior to SRB assays, cell viability was monitored by evaluation of microtiter plate wells. […]

A2780/DX5 cells = experiment: Sulforhodamine B (SRB) cytotoxicity assay in A2780/DX5 cells; type: cell-based; details: for IC50 Ratio: A2780/DX5 versus A2780/WT; for IC50: Homo sapiens, A2780, read-out: A2780/DX5 (nM)
Protocol: as §1
Roswell Park Memorial Institute (RPMI 1640) medium, fetal bovine serum (FBS), and L-glutamine were purchased from Gibco BRL. Drugs were dissolved in sterile dimethylsulfoxide (DMSO), from American Type Culture Collection (ATCC) for stock solutions (2.5 to 5.0 mM). Subsequent dilutions were made using cell culture medium (prior to adding the drug to cells). SRB was purchased from Sigma and dissolved in 1.0% acetic acid. Trichloroacetic acid was purchased from VWR International.
Cells were manipulated in a Class IIA/B3 Biological Safety Cabinet (Forma Scientific) and maintained at 37° C. in a humidified atmosphere containing 5% CO2 in a water-jacketed cell culture incubator (Forma Scientific). Cells were counted using a Coulter-Z1 counter (Beckman-Coulter). Following drug treatment, plates were washed using a Biomek 2000 station (Beckman) and, following exposure to SRB dye, plates were washed using an automated plate washer (Model EL404, Bio-Tek Instruments). Percentage of control was correlated to A570 values and determined using a Model EL800 plate reader (Bio-Tek Instruments).
Population doubling times for the two cell lines used in this study encompassed a total of five cell doublings corresponding to approximately 5 days for A2780/WT and A2780/DX5 cells. A2780/WT and A2780/DX5 cells were cultured in RPMI 1640 medium supplemented with 10% fetal bovine serum and 1 mM of L-glutamine. Both cell lines were maintained as monolayered cultures in T-25 or T-75 flasks and then seeded to microtiter plate wells for experiments described herein. Prior to SRB assays, cell viability was monitored by evaluation of microtiter plate wells. […]
The sulforhodamine B (SRB) cytotoxicity assay (see, Skehan P, et al., New colorimetric cytotoxicity assay for anticancer-drug screening. J. Natl. Cancer Inst. 82:1107-1112 (1990)) was used to determine the cytotoxic effects of BNP1350, SN-38, topotecan, 9-NH2-CPT, and 9-NO2-CPT on cell growth in vitro. […] Plates were agitated (gently) for 5 minutes and the absorbance values of the SRB dye-protein adduct at a 570 nm wavelength (A570) were determined using an automated microtiter plate reader equipped with an A570 filter (Model EL800, BioTek Instruments).

[2] = clinical studies in Japan alone; cited from earlier work
human cancer cell lines = experiment: In vitro studies on a panel of over 20 human cancer cell lines; type: cell-based
[3] = cited from earlier work
[4] = cited from earlier work; remark: listed apart in the source
[5] = tested on: advanced malignant melanoma; details: fifteen patients, 90-360 mg/m^2 repeated every 2 weeks; cited from earlier work
[6] = tested on: advanced gastrointestinal cancer; details: cited from earlier work
[7] = 5-day course 15 mg/m^2 × 5, 9 patients treated
[8] = 5-day course 17 mg/m^2 × 5, 5 patients treated
[9] = 5-day course 20 mg/m^2 × 5, 10 patients treated
[10] = single dose 110 mg/m^2, 2 patients treated
[11] = single dose 120 mg/m^2, 7 patients treated
[12] = single dose 180 mg/m^2, 9 patients treated
[13] = 5-day course (27 patients total), 4 wks
[14] = 5-day course (27 patients total), 8 wks
[15] = 5-day course (27 patients total), 12 wks
[16] = single-dose method (34 patients total), 3 wks
[17] = single-dose method (34 patients total), 6 wks
[18] = single-dose method (34 patients total), 9 wks
[19] = single-dose method (34 patients total), 12 wks

Structure (SMILES): CCOC(=O)COc1ccc2nc3c(c(CC[Si](C)(C)C)c2c1)Cn1c-3cc2c(c1=O)COC(=O)[C@]2(O)CC [Compound 9, 7-(2′-Trimethylsilanyl)ethyl-10-(ethoxycarbonylmethoxy) camptothecin]
- IC50 [1]: 73.9 nM
- IC50 Ratio (A2780/DX5 cells): 1.7
- IC50 (A2780/DX5 cells): 123 nM

Structure (SMILES): CCc1c2c(nc3ccc(OC(=O)N4CCC(N5CCCCC5)CC4)cc13)-c1cc3c(c(=O)n1C2)COC(=O)[C@]3(O)CC [CPT-11, 7-ethyl-10-[4-(1-piperidino)-1-piperidino]carbonyloxy camptothecin]
- patient deaths directly attributable to drug toxicity [2]: approximately 100 patient deaths

Structure (SMILES): CC[C@@]1(O)C(=O)OCc2c1cc1n(c2=O)Cc2c-1nc1ccccc1c2CC[Si](C)(C)C [Karenitecin (BNP1350), (4S)-4-ethyl-4-hydroxy-11-[2-(trimethylsilyl)ethyl]-1H-pyrano[3′:4′:6,7]indolizino[1,2-b]quinoline-3,14(4H,12H)-dione]
- antitumor potency compared with Topotecan or SN-38 (human cancer cell lines): significantly more potent

Structure (SMILES): CC[C@@]1(O)C(=O)OCc2c1cc1n(c2=O)Cc2c-1nc1ccc(OC(=O)N3CCOCC3)cc1c2CC[Si](C)(C)C [Compound 12, 7-(2′-Trimethylsilanyl)ethyl-10-(4-morpholinecarbonyloxy) camptothecin]
- IC50 [1]: 65.6 nM
- IC50 Ratio (A2780/DX5 cells): 2.1
- IC50 (A2780/DX5 cells): 135 nM

Structure (SMILES): CC[C@@]1(O)C(=O)OCc2c1cc1n(c2=O)Cc2cc3ccccc3nc2-1 [CPT sodium]
- bladder toxicity dose limiting ([3]; doses of 20 to 30 mg/m^2): three
- bladder toxicity, additional patients ([3]; doses of 30 and 44 mg/m^2): two
- No. of patients with cystitis ([4]; 5-day course 11 mg/m^2 × 5, 2 patients treated): 1 patients
- No. of patients with cystitis [4, 7]: 4 patients
- No. of patients with diarrhea [4, 7]: 1 patients
- No. of patients with cystitis [4, 8]: 2 patients
- No. of patients with diarrhea [4, 8]: 4 patients
- No. of patients with cystitis [4, 9]: 6 patients
- No. of patients with diarrhea [4, 9]: 4 patients
- No. of patients with diarrhea ([4]; 5-day course 22 mg/m^2 × 5, 1 patient treated): 1 patients
- Cystitis, 5-Day Course (% of 27 Patients) ([4]; 5-day course): 48 (P < 0.05) %
- Number of patients with cystitis ([4]; single dose 100 mg/m^2, 6 patients treated): 2 patients
- Number of patients with cystitis [4, 10]: 1 patients
- Number of patients with diarrhea [4, 10]: 1 patients
- Number of patients with cystitis [4, 11]: 2 patients
- Number of patients with diarrhea [4, 11]: 4 patients
- Number of patients with cystitis [4, 12]: 3 patients
- Number of patients with diarrhea [4, 12]: 2 patients
- Cystitis, Single Dose (% of 34 Patients) ([4]; single dose method): 24%
- less pronounced transient tumor regression [5]: three
- Objective results: Improved [6, 13]: 1 patients
- Objective results: Stable [6, 13]: 12 patients
- Objective results: Worse [6, 13]: 14 patients
- Objective results: Stable [6, 14]: 7 patients
- Objective results: Worse [6, 14]: 20 patients
- Objective results: Stable [6, 15]: 6 patients
- Objective results: Worse [6, 15]: 21 patients
- patients with evidence of partial objective improvement ([6]; after 2 months (8 or 9 weeks), of 61 patients): two
- patients who showed improvement ([6]; at 3 months, of 61 patients): none
- Objective results: Improved [6, 16]: 4 patients
- Objective results: Stable [6, 16]: 17 patients
- Objective results: Worse [6, 16]: 13 patients
- Objective results: Improved [6, 17]: 2 patients
- Objective results: Stable [6, 17]: 11 patients
- Objective results: Worse [6, 17]: 21 patients
- Objective results: Improved [6, 18]: 2 patients
- Objective results: Stable [6, 18]: 8 patients
- Objective results: Worse [6, 18]: 24 patients
- Objective results: Stable [6, 19]: 6 patients
- Objective results: Worse [6, 19]: 28 patients
